# Assay results published in a melting point compilation (Tetko et al.; mined from patent text by program, amines drawn as free bases though some values may be those of a salt).
row,SMILES,melting point [°C]
1,CCCCCCCCCCCCCCCCCCOCCSCCOC(=O)N(Cc1ccccn1)C(C)=O,47 to 49
2,COC(=O)c1ccc(-c2nc(-c3ccc4c(c3)C(C)(C)CCC4(C)C)co2)cc1,207 to 208
3,Cn1c(C(F)(F)F)cc(=O)n(-c2cc(OC(=O)NCC3CCCCC3)c(Cl)cc2F)c1=O,132 to 135
4,CC(C)CC1(C(CCN2C(=O)c3cc(Cl)c(Cl)cc3C2=O)C(=O)NO)CCN(CCc2ccccc2)C1=O (stereo not drawn),207 to 208
5,CCCc1c(OCCCCC(=O)c2ccc3cc(O)c(O)cc3c2)ccc(C(=O)O)c1O,213 to 214
6,CCOc1ccc(OCCN2CCN(c3cc(Cl)nnc3Cl)CC2)cc1,93 to 95
7,CC1(C)SC(=O)N(Cc2ccccc2[N+](=O)[O-])C1O (stereo not drawn),139 to 143
8,CCCc1nc2c(N)nc3cc(C(F)(F)F)ccc3c2s1,215 to 216
9,CC(C)(C)OC(=O)C(CC(O)(C(F)(F)F)C(F)(F)F)NC(=O)OCc1ccccc1 (stereo not drawn),83 to 89
10,CC(C)(C)NC(=O)[C@@H]1C[C@H](Cl)CN1C(=O)[C@@H](O)[C@H](Cc1ccccc1)NC(=O)[C@H](CCS(N)(=O)=O)NC(=O)OCc1ccccc1,115 to 122
11,COc1ccc(C=Cc2cc(OC)c3c(c2)OCO3)cc1O,145 to 150
12,O=C(Cc1ccc(F)cc1)NC1CCN(Cc2ccc(Cl)c(Cl)c2)CC1,144 to 147
13,CCOC(=O)c1c2n(c3cc(F)c(F)cc3c1=O)CCCC2,166 to 168
14,O=S(=O)(c1ccccc1)n1c2ccc(C=Cc3ccccc3)cc2c2cc(Cl)cnc21,190 to 192
15,C=C1C(O)C(COC(=O)CCCCCCCCCCCCCCCCC)OC1n1ccc(NC(=O)CCCCCCCCCCCCCCCCC)nc1=O (stereo not drawn),135 to 139
16,CCOC(=O)NN=C(C)C1(N)C(O)CC2C3CC=C4CC(OC(C)=O)CCC4(C)C3CCC21C (stereo not drawn),287 to 289
17,CCOC(=O)CC1SC(c2cc(C(C)(C)C)c(O)c(C(C)(C)C)c2)N(CCCN(C)CCOc2ccc3c(c2)OCO3)C1=O (stereo not drawn),88 to 89
18,O=C(O)c1conc1-c1ccc(F)cc1,170 to 174
19,N#Cc1ccc(N(c2ccc(N)cc2)n2ccnc2)cc1,147
20,COC(=O)C[C@]1(C)C[C@@H](COc2ccc(-c3ccc(C#N)cc3)cc2)NC1=O,105 to 108
21,Cc1nccc(OCc2ccccc2)c1OCc1ccccc1,85 to 87
22,ON=C1CCC2(CC1)Cc1ccccc1C2,120 to 122
23,CC/C=C/CNC(=O)[C@H]1N(C(=O)[C@@H](O)[C@H](Cc2ccccc2)NC(=O)c2cccc(O)c2C)CSC1(C)C,113 to 115
24,O=C(Nc1cccc(-c2ccnc3c(C(=O)c4cccs4)cnn23)c1)c1cccnc1,191 to 194
25,COCCOCCOCCC1(CCOCCOCCOC)c2cc(C#Cc3ccc(C=O)s3)ccc2-c2ccc(C#Cc3ccc(C=O)s3)cc21,84

row,SMILES,melting point [°C]
1,CS(=O)(=O)Cc1cc(F)cc(F)c1,135
2,CC(C)n1c(=O)on(C(=O)n2oc(=O)n(C(C)C)c2=O)c1=O,150
3,CCN(CC)CCCCC(=O)c1ccc2c(c1)C(=O)c1cc(C(=O)CCCCN(CC)CC)ccc1-2,108 to 110
4,O=C(OC1CCCCC1)c1ncn2c1[C@@H]1CCCN1C(=O)c1c(I)cccc1-2,181 to 182
5,CCOP(=O)(CC(N)=S)OCC,73 to 75
6,COc1ccc(C(=O)c2cccc(C)c2Cl)cc1,64.7 to 65.8
7,CC(C)(O)P(=O)(Oc1ccccc1)Oc1ccccc1,70 to 72
8,CCCCNC(=O)NC(Cc1ccccc1)C(=O)Nc1c(F)cc(F)cc1F (stereo not drawn),217 to 218
9,COCn1ncc2cc(-c3nnc(S)o3)ccc21,> 300
10,COC(=O)C1=C(C)NC(C(=N)N)=C(C(=O)OC(C)C)C1c1ccccc1[N+](=O)[O-] (stereo not drawn),203
11,N#CC(C#N)=C1c2cc(N)c(Cl)cc2-c2cc(Cl)c(N)cc21,336 to 338
12,Cc1c(C)c2c(c(C)c1N)C(C)C(C)(N1CCN(C)CC1)O2 (stereo not drawn),76 to 77
13,COc1cc(C(=O)Nc2cc(Oc3ccc4nc(NC(=O)C5CC5)cn4n3)ccc2C)n(C)n1,224
14,Nc1cc(=O)n(-c2c(Cl)cc(C(F)(F)F)cc2Cl)[nH]1,206 to 207
15,COc1cccc2c1C(=O)c1c(O)cc(CO)cc1C2=O,215 to 216
16,CCOC(=O)C1(C)C(=O)Nc2cc(NC(=O)c3ccncc3)ccc21 (stereo not drawn),222 to 224
17,O=C1c2cccc3c(Cl)ccc(c23)C(=O)N1O,234 to 236
18,Cc1cccc(-c2cn(C)cc(-c3cccc(C(F)(F)F)c3)c2=S)c1,193 to 196
19,Cc1cncc(C)c1CO,93 to 95
20,COc1ccc(C(=O)Nc2ccccc2)cc1Nc1cc(Cl)cc(Cl)c1,207 to 208
21,CCCCNC(=N)NC(=O)NCCCC,82 to 94
22,COc1cc2ncc(C#N)c(Nc3ccccc3C)c2cc1OC,137 to 141
23,CCCCCCCOc1ccc(C(=O)O)c(F)c1F,105
24,CS(=O)(=O)c1ccc(C2=C(c3ccc(F)c(F)c3)CCC2)cc1,114 to 115
25,COCCOc1ccc(OCC2(O)CN3CCC2CC3)cc1 (stereo not drawn),93 to 95

row,SMILES,melting point [°C]
1,CCCCc1nn(-c2cc(NC(=O)CC)ccc2Cl)c(=O)n1Cc1ccc(-c2ccccc2S(=O)(=O)NC(=O)OC(C)(C)C)cc1,133 to 135
2,NC(=S)Nc1ccccc1-c1ccc(Cl)cc1,175 to 177
3,CC(=O)N(CC(C)C)C1NC(=O)N(c2cccs2)C(=O)N1,138 to 139
4,COc1ccc(C=C2SC(=O)N(CCc3ccccn3)C2=O)cc1-c1cc2c(cc1C)C(C)(C)CCC2(C)C,170 to 171
5,O=C(C=Cc1ccc(O)cc1)N(CCO)CCO,148 to 150
6,CCc1nnc2c(NC(C)=O)nc3ccccc3n12,193 to 195
7,O=C(Nc1cc(S(=O)(=O)NCCO)sc1Cl)c1cnn2c(C(F)(F)F)cc(-c3ccc(C(F)(F)F)cc3)nc12,191
8,O=C(Oc1ccccc1)C(=C1NCCCS1)[N+](=O)[O-],100 to 102
9,COC(=O)c1cc2cc(OC)c(OC)cc2c(-c2ccnc(Cl)c2)n1,246 to 247
10,CC(=O)NCCn1c(O)nc2ccc(Cl)nc21,200 to 220
11,N#CCCOCc1cc(Cl)nc(Cl)c1,65.5
12,CCCCCCCCCCCCCCCCCCN(C)S(=O)(=O)c1cc(C(=O)OC)c([N+](=O)[O-])c(C(=O)OC)c1,70 to 72
13,CCn1ncnc1COc1nc2c(cc1C(C)(C)C)nnn2-c1ccccc1F,117 to 120
14,N#CC1=C(C2=CCNCC2)Nc2n[nH]cc2C1c1cccc2nonc12 (stereo not drawn),180
15,COc1cc(C(=O)N2CCC(CCN3CCC(C(=O)c4nc5ccccc5n4Cc4ccc(F)cc4)CC3)(c3ccc(F)cc3F)C2)cc(OC)c1OC (stereo not drawn),58 to 60
16,CN(C)C(=O)c1ccc2ccccc2c1/C=C/c1ccccc1,114 to 116
17,CN(C)C(=O)CC(=O)c1ccc(C(=O)CC(=O)N(C)C)cc1,188 to 189
18,CC(C)Nc1nc2cc(Cl)c(Cl)cc2n1C1OC(CO)C(O)C1O (stereo not drawn),197 to 199
19,CCC(O)(c1ccc(O)cc1)c1ccc(Cl)cc1 (stereo not drawn),148 to 149
20,COc1cc(C(=O)CC(=O)c2ccccc2O)cc([N+](=O)[O-])c1OC,188 to 189
21,COc1ccc(-c2ccc3cc(C4SC(=O)NC4=O)ccc3c2)cc1C12CC3CC(CC(C3)C1)C2 (stereo not drawn),205 to 207
22,O=C1NC(=O)C(c2c3n(c4ccccc24)CCC(CO)C3)=C1c1ccccc1Cl (stereo not drawn),232 to 233
23,CCn1ncc(C(=O)c2ccc(S(C)(=O)=O)c(C3=NOCC3)c2Cl)c1OCc1ccccc1,70 to 75
24,CN1C(=O)Cc2ccsc2S1(=O)=O,136 to 137
25,CC(=O)Nc1ccc(NCC(=O)C23CC4CC(CC(C4)C2)C3)cc1,156 to 158

row,SMILES,melting point [°C]
1,Cc1cc(CO)c2cccc(OCc3ccccc3)c2n1,137 to 141
2,CON=C1CN(c2nc3c(cc2F)c(=O)c(C(=O)O)cn3C2CC2)CC12CN(C(=O)OC(C)(C)C)C2,278 to 279
3,CN1C(=O)C2CN(Cc3ccncc3)CCN2c2ccccc21 (stereo not drawn),252 to 254
4,CCOP1(=O)OCc2ccccc21 (stereo not drawn),60
5,CN(C)Cc1ccc(CSCCNC2=NS(=O)(=O)N=C2N(C)C)o1,139 to 142
6,COc1cc(Cc2cnc(N)nc2N)cc2c1OC(C)(C)C=C2c1ccccc1,> 260
7,C[C@@H](Cc1ccc(O)cc1)NS(=O)(=O)c1ccccc1,92 to 94
8,CCCc1nn(CC)c2c(=O)n(CCCOc3ccc(SC(C)(C)C(=O)O)cc3)c(C)nc12,118 to 120
9,CS(=O)(=O)c1ccc(C(=O)c2cnoc2C2CC2)c(Cl)c1-c1nccs1,153 to 155
10,CCOC(=O)C(=O)c1cn(CCNC(=O)OC(C)(C)C)c2ccccc12,114 to 115
11,O=C(O)c1ccccc1Nc1ccc(CCc2ccc(O)c(O)c2)cc1,215 to 217
12,Nc1nnc(N2CCN(Cc3ccncc3)CC2)[nH]1,191 to 193
13,CCCc1nc(C)n2nc(S(=O)(=O)Cl)nc2c1Cc1ccc(-c2ccccc2C#N)cc1,141
14,N#Cc1ccc(-c2ccc(OCCCCCC(=O)NO)cc2)cc1,129
15,N#Cc1ncc(Br)cc1Br,109 to 112
16,NS(=O)(=O)c1ncccc1F,124 to 125
17,Cn1ncc(-c2nn(-c3cccc(C(F)(F)F)c3)ccc2=O)c1-c1ccccc1,193 to 195
18,COC(=O)c1cc(OC)c([N+](=O)[O-])cc1NC(C)=O,141 to 143
19,CCCCCCn1c2ccccc2c2ccccc21,62.5 to 64.1
20,Nc1cc(=O)n(Cc2ccc3ccccc3c2)[nH]1,156 to 157
21,CSCC(=O)[C@H](Cc1ccccc1)NC(=O)[C@H](CC(C)C)NC(C)=O,118 to 120
22,COc1ccc(Oc2cccc(C)c2)c(NS(C)(=O)=O)c1,87 to 88
23,O=S(=O)(c1ccc(Oc2ccccc2)cc1)c1cccc(S(=O)(=O)c2ccc(Oc3ccccc3)cc2)c1,70 to 75
